Experimental data published in patent US11286231B2, “Hydrogen-bonding compounds, compositions comprising the same, and methods of preparing and using the same” (Wake Forest University Health Sciences, priority 2016, dated 2022).

Key:
[1] = Oscillatory shear-stress sweep test, shear elastic modulus G′ of HyStem hydrogels; type: physicochemical
Description: (§1) To a 2 mL centrifuge tube, 200 μL of Heprasil® solution (1% w/v solution, thiolated HA component of HyStem kit), 200 μL of Gelin-S® solution (1% w/v, thiolated gelatin component of HyStem kit), 50 μL of Extralink® solution (2% w/v, polyethylene glycol diacrylate component of HyStem kit), and 50 μL of a modular catecholamine (C1.1) or amide […] solutions (0.25%-1.5% w/v, see Rheology section for specifics) were added and mixed by softly pipetting the solution up and down carefully to avoid creating bubbles. For control experiments the modular catecholamide or amine solutions were replaced with an equivalent volume of sterile deionized water. For rheology or cell culture studies, the reaction mixture was placed into wells of an appropriate size and exposed to UV radiation (˜222 nm) for 1-5 seconds.
A Discovery HR-2 Rheometer (TA Instruments, New Castle, Del.) with an 8 mm geometry was used to collect the rheological data. After reaction set-up, 200 μL of the reaction mixture was transferred into a 12 mm diameter×5 mm depth PDMS well. The PDMS well containing the reaction mixture was then exposed to UV radiation for 5 seconds at a distance of 1 cm. Photo-initiated polymerization and formation of a hydrogel occurred instantaneously. To ensure standard conditions across all experiments the geometry was lowered into the gels until a calibration normal force of 0.4N was achieved. Following, an oscillatory shear-stress sweep test (0.6-10.0 Pa, 1.0 Hz, 25° C.) was applied to hydrogels containing varying concentrations (0%, 1.0%, and 1.5% w/v) of modular amine compounds, C1.1 and C1.2. This experiment was repeated in triplicate for each condition. Average shear elastic modulus, G′, values were determined for each condition.
Shear-stress sweep tests (0.6-10.0 Pa, 1.0 Hz, 25° C.) were applied to hydrogels containing varying solution concentrations (0%, 1.0%, and 1.5% WAV) of modular amine compounds, C1.1/C1.2. Reported here are the average shear elastic modulus G′ values for n=3 runs for each condition (FIGS. 3 and 4). The reported uncertainties were calculated from standard deviations between n=3 averaged G′ values of each condition. In FIG. 3 we report the following G′ values: (2.136×10^3+/−3.988×10^2) Pa for the HyStem® control, (3.166×103+/−6.772×10^2) Pa for the HyStem®+1% w/v catecholamine, and (3.648×103+/8.047×102) Pa for the HyStem®+1.5% w/v catecholamine. […] Thus it was observed that when increasing the % w/v of the catecholamine (C1.1) solution used from 0% w/v, 1% w/v, 1.5% w/v, a proportional increase in G′ was observed, i.e., 1 equivalent of C1.1=1000 Pa increase in G′ and 1.5 equivalent=1500 Pa increase in the G′ of the hydrogel matrix.

[2] = Rheometer tensile strength T′ (adhesive force) test of HyStem hydrogels; type: physicochemical; details: for increase in T′ when concentration is doubled: 0.25% to 0.50% to 1.0% w/v; for fold increase in tensile strength T′: 1.0% w/v solution; for tensile strength T′: n=3
Description: as §1
A Discovery HR-2 Rheometer (TA Instruments) with an 8 mm geometry was used to collect the tensile strength, T′, data. The test was designed to quantify the axial force (Pa) exerted by the hydrogel on the geometry as measured by the rheometer as the geometry is slowly raised over 2000 μm at 25° C. The absolute value of the axial force (Pa) was then taken to be the adhesive force or tensile strength T′ (Pa) assigned to the hydrogel. To ensure standard conditions across all experiments the geometry was lowered into the gels until a calibration force of 0.4N was observed. Following, a rheometer tensile strength test was applied to the hydrogels at each of the respective conditions containing varying concentrations (0% w/v, 0.25% w/v, 0.50% w/v, and 1.0% w/v) of modular amine compounds, C1.0-C1.2. This experiment was repeated in triplicate for each condition.
While not wishing to be bound to any particular theory, our assumption here is that increased intermolecular interactions are occurring with the C1.2. In addition to the ortho-dihydroxyl groups offered by the catechol moiety, the amide moiety offers an extra hydrogen […] species, the carbonyl oxygen (C═O), for intermolecular interactions between the adjacent catecholamides. The catecholamides located on different HA chains or gelatin increase the ability for the hydrogel matrix to both interact with itself and other substrates through hydrogen bonding. Whereas the amine (C1.1) has a secondary carbon in the same position as the carbonyl functional group on the amide (C1.2), we postulate that the lack of this hydrogen bonding position yields a lower increase in G′ observed in hydrogel when comparing the two compounds. Again, to ensure standard conditions across all experiments, the geometry was lowered into the gels until a calibration force of 0.4N was detected. Following, a tensile strength test (25 μm/s, […], 25° C.) was applied to hydrogels containing varying concentrations (0%, 0.25%, […], and 1.0% w/v) of modular amine solutions, C1.1/C1.2. The reported values are the average T′ (Pa) values for n=3 runs at every condition and uncertainties were calculated from standard deviations between n=3 averaged T′ (Pa) for each condition. In FIG. 4, we report the following T′ (Pa) values for hydrogels containing C1.1: (1.10×10^2+/−2.91×10^1) Pa for Hystem® control, (2.90×10^2+/−1.23×10^2) Pa for Hystem®+0.25% w/v catecholamine, (4.25×10^2+/−1.01×10^2) Pa for Hystem® +0.50% w/v catecholamine, and (8.48×10^2+/−1.42×10^2) Pa for Hystem®+1.0% w/v catecholamine. […] In addition, we collected the following T′ values (Pa) for hydrogels containing C1.2: (1.09×10^2+3.64×10^1) Pa for Hystem® control, (3.33×10^2+/−6.16×10^1) Pa for Hystem®+0.25% w/v catecholamide, (4.12×10^2+/−6.39×10^1) Pa for Hystem®+0.50% w/v catecholamide, and (1.16×10^3+/−6.34×10^1) Pa for Hystem®+1.0% w/v catecholamide. […] Conclusively, we can say the increase in allotted tensile strength T′ (Pa) of the hydrogels when cross comparing compounds, C1.1 and C1.2, is due to the amide moiety having higher hydrogen bonding capacities.

[3] = Hystem + 0.25% w/v compound solution
[4] = Hystem + 0.50% w/v compound solution
[5] = Hystem + 1.0% w/v compound solution

Compound	increase in G′ vs HyStem control ([1]; 1.0% w/v compound solution)	increase in G′ over gels containing 1.0% w/v C1.1 ([1]; 1.5% w/v C1.1 solution)	increase in G′ vs HyStem control ([1]; 1.5% w/v compound solution)	increase in T′ when concentration is doubled [2]	fold increase in tensile strength T′ [2]	tensile strength T′ [2, 3]	increase in T′, 0.50% w/v to 1.0% w/v ([2]; Hystem + 0.50% w/v compared to Hystem + 1.0% w/v)	tensile strength T′ [2, 4]	tensile strength T′ [2, 5]	higher increase in G′ over gels containing 1.0% w/v C1.1 solution ([1]; 1.0% w/v C1.2 solution)	shear elastic modulus G′ ([1]; Hystem + 1.0% w/v compound solution, n=3)
C#CCNCc1ccc(O)c(O)c1 [Compound C1.1]	~1.029×10^3+/−3.280×10^1 Pa	477 pa	1.512×10^3+/−3.469×10^1 Pa	~100%	approximately 4 fold	2.90×10^2+/−1.23×10^2 Pa	4.13×10^2+/−1.56×10^1 Pa	4.25×10^2+/−1.01×10^2 Pa	8.48×10^2+/−1.42×10^2 Pa	–	–
C#CCNC(=O)Cc1ccc(O)c(O)c1 [Compound C1.2]	~1.817×10^3+/−2.457×10^1 Pa	–	1.989×10^3+/−1.378×10^1 Pa	200%	~6 fold	3.33×10^2+/−6.16×10^1 Pa	–	4.12×10^2+/−6.39×10^1 Pa	1.16×10^3+/−6.34×10^1 Pa	788 Pa	3.953×10^3+/−1.160×10^2 Pa
